The source of these data is article PMC8795197, “Safety and activity of WX-0593 (Iruplinalkib) in patients with ALK- or ROS1-rearranged advanced non-small cell lung cancer: a phase 1 dose-escalation and dose-expansion trial” (Signal Transduction and Targeted Therapy, 2022).

The structures appear in SMILES notation. “Also recorded” adds a separate entry of the source.

A short description of data set [1]: General pharmacology: cardiovascular system. The class given is in vivo, monkeys. Here is the method:
(§1) […]. Therefore, WX-0593 has a low risk of cardiotoxicity. There were no effects on the CNS and respiratory system in rats at doses of 3, 10, and 30 mg/kg. However, WX-0593 10 and 30 mg/kg may result in benign respiratory rate and decreases in minute ventilation in female rats. There were no effects on the cardiovascular system, blood pressure, ECG parameters or waveforms in monkeys at doses of 5, 10, and 25 mg/kg; 10 and 25 mg/kg may result in mild decreases in heart rate (within the normal range) and PR prolongation and QTc shortening associated with bradycardia within the normal range (no statistical difference when compared to the control arm). No cardiovascular system adverse reactions related to the test product were found. The human equivalent dose (using 60 kg) is 3636 mg/person in CNS, 3636 mg/person in male respiratory system and 363.6 mg/person in female respiratory system, and 607 mg/person in cardiovascular system.

Data set [2] concerns Karpas299 (NPM-ALK). Description: Cell proliferation inhibition assay. The class given is cell-based.
For data set [3], the system named is 27 non-target kinases (MAP4K4 ... INSR, EGFR wild type). Description: Inhibitory study of 27 non-target kinases. The data set is classed as biochemical. The conditions noted are these: except for EGFR wild type.
Data set [4] concerns the target CYP3A4 (Homo sapiens, UniProt P08684). The experiment in a line: Metabolic enzyme phenotyping (chemical inhibitors, recombinant human P450). The class given is in vitro ADME. The source says: Other isoenzymes (CYP1A2, CYP2B6, CYP2C8, CYP2C9, CYP2C19 and CYP2D6) played a secondary or insignificant role in the formation of M1, M2, and M5.
Data set [5] concerns the target hERG currents (Homo sapiens, UniProt Q12809). The experiment in a line: Inhibition of hERG currents. The data set is classed as cell-based. How it is done:
as §1
Background: The hERG channel carries a current that helps repolarise heart muscle cells.

For data set [6], the target named is hERG (Homo sapiens, UniProt Q12809). The experiment in a line: Inhibition of hERG currents. The data set is classed as cell-based. The conditions noted are these: human; maximum tested dose 30 μM. How it is done:
as §1

Chain of CYP3A4 (P08684 whole entry): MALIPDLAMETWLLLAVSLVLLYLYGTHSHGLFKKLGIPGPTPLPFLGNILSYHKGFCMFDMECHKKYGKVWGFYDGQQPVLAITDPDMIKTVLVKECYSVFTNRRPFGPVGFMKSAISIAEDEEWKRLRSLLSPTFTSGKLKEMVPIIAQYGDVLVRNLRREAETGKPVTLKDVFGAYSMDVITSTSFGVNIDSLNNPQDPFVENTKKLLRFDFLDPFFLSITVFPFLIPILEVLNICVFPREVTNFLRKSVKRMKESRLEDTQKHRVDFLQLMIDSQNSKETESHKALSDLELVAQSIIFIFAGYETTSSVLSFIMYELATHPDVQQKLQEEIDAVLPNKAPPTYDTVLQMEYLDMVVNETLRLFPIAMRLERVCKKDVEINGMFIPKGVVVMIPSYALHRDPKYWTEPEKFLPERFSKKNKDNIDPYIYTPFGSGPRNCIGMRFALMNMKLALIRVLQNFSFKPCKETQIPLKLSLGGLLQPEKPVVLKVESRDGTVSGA
Chain of hERG currents (Q12809 whole entry): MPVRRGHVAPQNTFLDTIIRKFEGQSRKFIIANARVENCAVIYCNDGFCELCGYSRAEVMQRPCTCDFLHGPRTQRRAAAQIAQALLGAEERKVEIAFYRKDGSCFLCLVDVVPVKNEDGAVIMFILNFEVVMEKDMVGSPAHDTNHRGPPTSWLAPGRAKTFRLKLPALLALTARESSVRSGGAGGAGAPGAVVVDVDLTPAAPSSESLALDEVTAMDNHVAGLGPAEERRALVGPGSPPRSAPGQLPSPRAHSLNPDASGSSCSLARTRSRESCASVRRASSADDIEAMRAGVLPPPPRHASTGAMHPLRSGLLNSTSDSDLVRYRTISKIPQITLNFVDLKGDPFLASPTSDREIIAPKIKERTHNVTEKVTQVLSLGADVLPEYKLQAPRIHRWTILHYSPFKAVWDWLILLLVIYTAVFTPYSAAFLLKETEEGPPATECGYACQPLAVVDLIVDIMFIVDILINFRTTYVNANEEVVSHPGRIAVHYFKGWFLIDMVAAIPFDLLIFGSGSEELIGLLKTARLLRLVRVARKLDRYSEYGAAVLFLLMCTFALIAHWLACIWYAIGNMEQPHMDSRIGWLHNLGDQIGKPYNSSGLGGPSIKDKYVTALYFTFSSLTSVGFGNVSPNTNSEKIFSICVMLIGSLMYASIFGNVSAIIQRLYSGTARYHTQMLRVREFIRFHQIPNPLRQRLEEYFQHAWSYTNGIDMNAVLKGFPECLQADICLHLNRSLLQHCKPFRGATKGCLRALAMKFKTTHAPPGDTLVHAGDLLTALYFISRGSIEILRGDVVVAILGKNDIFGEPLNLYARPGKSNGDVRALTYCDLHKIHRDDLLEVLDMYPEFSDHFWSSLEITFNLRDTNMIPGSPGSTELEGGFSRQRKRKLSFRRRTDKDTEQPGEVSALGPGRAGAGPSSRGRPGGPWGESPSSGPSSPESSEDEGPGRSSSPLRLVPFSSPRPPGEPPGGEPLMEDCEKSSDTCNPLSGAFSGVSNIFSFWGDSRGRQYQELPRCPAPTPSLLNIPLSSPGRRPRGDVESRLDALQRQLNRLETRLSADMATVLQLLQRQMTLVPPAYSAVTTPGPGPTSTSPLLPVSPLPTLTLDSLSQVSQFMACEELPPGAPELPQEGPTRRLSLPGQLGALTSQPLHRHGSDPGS
Chain of hERG (Q12809 whole entry): as above

For the compound `COc1cc(N2CCC3(CCN(C)CC3)CC2)ccc1Nc1ncc(Cl)c(Nc2ccccc2P(C)(C)=O)n1` [WX-0593], in data set [1] (5, 10 and 25 mg/kg), the “effects on cardiovascular system, blood pressure, ECG parameters or waveforms” value is “no effects”. Also, the “human equivalent dose, cardiovascular system” value in data set [1] (using 60 kg) was 607 mg/person. Further, the growth inhibition result in data set [2] was “significantly inhibits the growth”. Further, the “inhibitory activity against non-target kinases” value in data set [3] was “no significant inhibitory activity”. Besides, the “major metabolic enzyme (formation of M1, M2, M5)” value in data set [4] was “primarily metabolized by CYP3A4; also recorded: CYP3A4 is the major metabolic enzyme”. In data set [5], half-maximal inhibition (IC50) was put at 20 µM and the hERG slope was found to be 0.95. For the same compound, the inhibition (usually the share of the control response that was lost under treatment) at 30 μM in data set [6] was 58.1%.
